Data taken from patent US11649242B2, “Pyrrolopyrrole compositions as pyruvate kinase (PKR) activators” (FORMA Therapeutics, Inc., priority 2017, dated 2023).

Assays:
Format in all cases: biochemical
[1] = molecular target: PKR(wt) (Homo sapiens, UniProt P30613); assay: Luminescence Assay Protocol (Kinase Glo Plus), PKR(Wt/without FBP); conditions: without FBP; for activation at 1.54 µM: read-out: I - AC50 LUM KGP woFBP % Fold @ 1.54 μM mean; for AC50: gmean, read-out: G - AC50 LUM KGP woFBP AC50 μM gmean; for Emax: read-out: H - AC50 LUM KGP woFBP MAX % FOLD mean
Sequence of PKR(wt) (P30613 whole entry): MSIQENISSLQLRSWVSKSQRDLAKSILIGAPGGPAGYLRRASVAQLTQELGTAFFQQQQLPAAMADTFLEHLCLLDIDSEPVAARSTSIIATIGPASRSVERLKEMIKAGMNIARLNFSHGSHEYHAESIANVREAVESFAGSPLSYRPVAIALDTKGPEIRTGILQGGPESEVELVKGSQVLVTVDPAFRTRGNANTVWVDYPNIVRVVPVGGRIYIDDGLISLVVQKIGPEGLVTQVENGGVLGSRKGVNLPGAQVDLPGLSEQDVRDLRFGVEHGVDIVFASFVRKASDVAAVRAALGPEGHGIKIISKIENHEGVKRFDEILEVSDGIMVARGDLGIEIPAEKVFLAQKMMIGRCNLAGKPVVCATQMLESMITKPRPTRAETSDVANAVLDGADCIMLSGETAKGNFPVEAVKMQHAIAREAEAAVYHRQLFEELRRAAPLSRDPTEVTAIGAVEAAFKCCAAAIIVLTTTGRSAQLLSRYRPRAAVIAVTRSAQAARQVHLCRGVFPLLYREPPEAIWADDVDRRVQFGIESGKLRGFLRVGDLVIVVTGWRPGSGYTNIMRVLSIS
Procedure: (§1) Example 47: PKR(Wt/without FBP), PKR(G332S/with FBP), PKR(R510Q/without FBP)
(§2) The phosphorylation of Adenosine-5′-diphosphate (ADP) by various mutants of PKR was determined by the Kinase Glo Plus Assay (Promega) in the presence or absence of FBP [D-Fructose-1,6-diphosphate; BOC Sciences, CAS: 81028-91-3] as follows. Unless otherwise indicated, all reagents were purchased from Sigma-Aldrich. All reagents were prepared in buffer containing 50 mM Tris-HCl, 100 mM KCl, 5 mM MgCl2, and 0.01% Triton X100, 0.03% BSA, and 1 mM DTT. Enzyme and PEP [Phospho(enol) pyruvic acid] were added at 2× to all wells of an assay-ready plate containing serial dilutions of test compounds or DMSO vehicle. Final enzyme concentrations for PKR(wt), PKR(R510Q), and PKR(G332S) were 0.8 nM, 0.8 nM, and 10 nM respectively. Final PEP concentration was 100 μM. The Enzyme/PEP mixture was incubated with compounds for 30 minutes at RT before the assay was initiated with the addition of 2×ADP [Adenosine-5′-diphosphate] and KinaseGloPlus. Final concentration of ADP was 100 μM. […] For assays containing FBP, that reagent is added at 30 μM upon reaction initiation. Reactions were allowed to progress for 45 minutes at RT until luminescence was recorded by the BMG PHERAstar FS Multilabel Reader. All compounds were tested in triplicate at concentrations ranging from 42.5 μM to 2.2 nM in 0.83% DMSO.
(§3) Luminescence values were converted to % Fold increase by normalizing to the average of the DMSO control and multiplying by 100. Max, min, slope and AC50 were determined by the standard four parameter fit algorithm of ActivityBase XE Runner. Compounds were evaluated with three parameters—AC50, MAX % Fold, and % Fold@1.54 μM (FIG. 1). The AC50 value for a compound is the concentration […] corresponding to the midway between the maximum and minimum values of the four parameter logistic curve fit (i.e., at which the % fold increase along the four parameter logistic curve fit is halfway between MAX % Fold and MIN % Fold (% Fold Midpoint)), MAX % Fold is the highest fold increase observed at any concentration of compound, and % Fold@1.54 μM is the fold increase at a compound concentration of 1.54 μM. The parameter % Fold@1.54 μM was selected to capture elements of both the AC50 and MAX % Fold and to provide a ranking based on both potency and effect. The compound concentration of 1.54 μM was chosen as one that can optimally differentiate the set of compounds based on the range of activities observed.
(§4) As set forth in Tables 6 and 7 below, AC50 values (columns A, D, G) are defined as follows: ≤0.1 μM (+++); >0.1 μM and ≤1.0 μM (++); >1.0 μM and ≤40 μM (+); >40 μM (0). Max % FOLD values (columns B, E, H) are defined as follows: ≤75% (+); >75% and ≤250% (++); >250% and ≤500% (+++). % Fold@1.54 μM values (columns C, F, I) are defined as follows: ≤75% (+); >75% and ≤250% (++); >250% and ≤500% (+++).

[2] = molecular target: PKR(G332S) (Homo sapiens, UniProt P30613, G332S); assay: Luminescence Assay Protocol (Kinase Glo Plus), PKR(G332S/with FBP); conditions: PKRG332S, with FBP; for activation at 1.54 µM: read-out: C - AC50 LUM KGP FBP % Fold @ 1.54 μM mean; for AC50: gmean, read-out: A - AC50 LUM KGP FBP AC50 μM gmean; for Emax: read-out: B - AC50 LUM KGP FBP MAX % FOLD mean
Sequence of PKR(G332S) (P30613 whole entry G332S): as the sequence (P30613 whole entry) above, with G332S counted along it
Procedure: as §1, §2, §3, §4

[3] = molecular target: PKR(R510Q) (Homo sapiens, UniProt P30613, R510Q); assay: Luminescence Assay Protocol (Kinase Glo Plus), PKR(R510Q/without FBP); conditions: PKRR510Q, without FBP; for activation at 1.54 µM: read-out: F - AC50 LUM KGP woFBP % Fold @ 1.54 μM mean; for AC50: gmean, read-out: D - AC50 LUM KGP woFBP AC50 μM gmean; for Emax: read-out: E - AC50 LUM KGP woFBP MAX % FOLD mean
Sequence of PKR(R510Q) (P30613 whole entry R510Q): as the sequence (P30613 whole entry) above, with R510Q counted along it
Procedure: as §1, §2, §3, §4

[4] = highest % fold increase at any concentration

Row | activation at 1.54 µM ([1]; compound 1.54 μM) [%] | AC50 [1] [µM] | Emax [1, 4] [%] | activation at 1.54 µM ([2]; compound 1.54 μM) [%] | AC50 [2] [µM] | Emax [2, 4] [%] | activation at 1.54 µM ([3]; compound 1.54 μM) [%] | AC50 [3] [µM] | Emax [3, 4] [%] | I - AC50 LUM KGP woFBP % Fold @ 1.54 μM mean ([1]; compound 1.54 μM) | H - AC50 LUM KGP woFBP MAX % FOLD mean [1, 4] | C - AC50 LUM KGP FBP % Fold @ 1.54 μM mean ([2]; compound 1.54 μM) | B - AC50 LUM KGP FBP MAX % FOLD mean [2, 4] | F - AC50 LUM KGP woFBP % Fold @ 1.54 μM mean ([3]; compound 1.54 μM) | E - AC50 LUM KGP woFBP MAX % FOLD mean [3, 4] | SMILES
1 | 75 to 250 | 0.1 to 1 | 75 to 250 | 75 to 250 | > 40 | 75 to 250 | 75 to 250 | 1 to 40 | 75 to 250 | – | – | – | – | – | – | COCCC(=O)N1CC2=C(C1)CN(S(=O)(=O)c1ccc3c(c1)N(C)CCO3)C2 [Example 53, 3-methoxy-1-(5-((4-methyl-3,4-dihydro-2H-benzo[b][1,4]oxazin-6-yl)sulfonyl)-3,4,5,6-tetrahydropyrrolo[3,4-c]pyrrol-2(1H)-yl)propan-1-one]
2 | 250 to 500 | ≤ 0.1 | 250 to 500 | 75 to 250 | ≤ 0.1 | 75 to 250 | 250 to 500 | ≤ 0.1 | 250 to 500 | – | – | – | – | – | – | O=C([C@H](CO)c1ccccc1)N1CC2=C(C1)CN(S(=O)(=O)c1ccc(OC(F)F)cc1)C2 [Example 31, (S)-1-(5-((4-(difluoromethoxy)phenyl)sulfonyl)-3,4,5,6-tetrahydropyrrolo[3,4-c]pyrrol-2(1H)-yl)-3-hydroxy-2-phenylpropan-1-one]
3 | 250 to 500 | 0.1 to 1 | 250 to 500 | 75 to 250 | 0.1 to 1 | 75 to 250 | 250 to 500 | 1 to 40 | 250 to 500 | – | – | – | – | – | – | O=C(C1COc2ccccc21)N1CC2=C(C1)CN(S(=O)(=O)c1ccc3ncsc3c1)C2 (stereo not drawn) [Example 43, (5-(benzo[d]thiazol-6-ylsulfonyl)-3,4,5,6-tetrahydropyrrolo[3,4-c]pyrrol-2(1H)-yl)(2,3-dihydrobenzofuran-3-yl)methanone]
4 | 250 to 500 | ≤ 0.1 | 250 to 500 | 75 to 250 | ≤ 0.1 | 75 to 250 | 250 to 500 | ≤ 0.1 | 250 to 500 | – | – | – | – | – | – | C[C@@H](O)[C@@H](C(=O)N1CC2=C(C1)CN(S(=O)(=O)c1ccc(OC(F)F)cc1)C2)c1ccccc1 (racemic) [Example 26, (2S,3R and 2R,3S)-1-(5-((4-(difluoromethoxy)phenyl)sulfonyl)-3,4,5,6-tetrahydropyrrolo[3,4-c]pyrrol-2(1H)-yl)-3-hydroxy-2-phenylbutan-1-one]
5 | 250 to 500 | 0.1 to 1 | 250 to 500 | 75 to 250 | 0.1 to 1 | 75 to 250 | 75 to 250 | 1 to 40 | 250 to 500 | – | – | – | – | – | – | O=C([C@@H]1CCOC1)N1CC2=C(C1)CN(S(=O)(=O)c1ccc(OC(F)F)cc1)C2 [Example 14, (R)-(5-((4-(difluoromethoxy)phenyl)sulfonyl)-3,4,5,6-tetrahydropyrrolo[3,4-c]pyrrol-2(1H)-yl)(tetrahydrofuran-3-yl)methanone]
6 | – | 0.1 to 1 | – | – | 0.1 to 1 | – | – | 1 to 40 | – | ++ (>75% and ≤250% (++)) | +++ (>250% and ≤500% (+++)) | ++ (>75% and ≤250% (++)) | ++ (>75% and ≤250% (++)) | ++ (>75% and ≤250% (++)) | +++ (>250% and ≤500% (+++)) | O=C(C1CCCOC1)N1CC2=C(C1)CN(S(=O)(=O)c1ccccn1)C2 (single isomer, unassigned) [Example 45, (S or R)-(5-(pyridin-2-ylsulfonyl)-3,4,5,6-tetrahydropyrrolo[3,4-c]pyrrol-2(1H)-yl)(tetrahydro-2H-pyran-3-yl)methanone]
7 | 250 to 500 | ≤ 0.1 | 250 to 500 | 75 to 250 | ≤ 0.1 | 75 to 250 | 250 to 500 | 0.1 to 1 | 250 to 500 | – | – | – | – | – | – | C[C@@H](O)[C@H](C(=O)N1CC2=C(C1)CN(S(=O)(=O)c1ccc(OC(F)F)cc1)C2)c1ccccc1 (racemic) [Example 27, (2R,3R and 2S,3S)-1-(5-((4-(difluoromethoxy)phenyl)sulfonyl)-3,4,5,6-tetrahydropyrrolo[3,4-c]pyrrol-2(1H)-yl)-3-hydroxy-2-phenylbutan-1-one]
8 | 75 to 250 | 0.1 to 1 | 250 to 500 | 75 to 250 | 0.1 to 1 | 75 to 250 | 250 to 500 | 0.1 to 1 | 250 to 500 | – | – | – | – | – | – | O=C([C@H](CO)c1ccccc1)N1CC2=C(C1)CN(S(=O)(=O)c1cccnc1)C2 [Example 50, (2S)-3-hydroxy-2-phenyl-1-[5-(pyridine-3-sulfonyl)-1H,2H,3H,4H,5H,6H-pyrrolo[3,4-c]pyrrol-2-yl]propan-1-one]
9 | 75 to 250 | ≤ 0.1 | 75 to 250 | 75 to 250 | ≤ 0.1 | 75 to 250 | 250 to 500 | ≤ 0.1 | 250 to 500 | – | – | – | – | – | – | O=C([C@H](CO)c1ccccc1)N1CC2=C(C1)CN(S(=O)(=O)c1ccc3c(c1)NCCO3)C2 [Example 35, (S)-1-(5-((3,4-dihydro-2H-benzo[b][1,4]oxazin-6-yl)sulfonyl)-3,4,5,6-tetrahydropyrrolo[3,4-c]pyrrol-2(1H)-yl)-3-hydroxy-2-phenylpropan-1-one]
10 | 75 to 250 | 0.1 to 1 | 250 to 500 | 75 to 250 | ≤ 0.1 | 75 to 250 | 75 to 250 | 1 to 40 | 250 to 500 | – | – | – | – | – | – | CC(C)(O)[C@@H](C(=O)N1CC2=C(C1)CN(S(=O)(=O)c1ccc(OC(F)F)cc1)C2)c1ccccc1 [Example 28, (S)-1-(5-((4-(difluoromethoxy)phenyl)sulfonyl)-3,4,5,6-tetrahydropyrrolo[3,4-c]pyrrol-2(1H)-yl)-3-hydroxy-3-methyl-2-phenylbutan-1-one]
11 | 250 to 500 | ≤ 0.1 | 250 to 500 | 75 to 250 | ≤ 0.1 | 75 to 250 | 250 to 500 | ≤ 0.1 | 250 to 500 | – | – | – | – | – | – | O=C([C@H](CO)c1ccccc1)N1CC2=C(C1)CN(S(=O)(=O)c1ccc3ncsc3c1)C2 [Example 29, (S)-1-(5-(benzo[d]thiazol-6-ylsulfonyl)-3,4,5,6-tetrahydropyrrolo[3,4-c]pyrrol-2(1H)-yl)-3-hydroxy-2-phenylpropan-1-one]
